These results are taken from patent publication US20030232986A1, “Inhibitors of caspases” (Vertex Pharmaceuticals Incorporated, priority 1998, published 2003).

One data set addresses T1, Caspase-1 (Homo sapiens, UniProt P29466).
T1 sequence (P29466 120-297 limits assumed): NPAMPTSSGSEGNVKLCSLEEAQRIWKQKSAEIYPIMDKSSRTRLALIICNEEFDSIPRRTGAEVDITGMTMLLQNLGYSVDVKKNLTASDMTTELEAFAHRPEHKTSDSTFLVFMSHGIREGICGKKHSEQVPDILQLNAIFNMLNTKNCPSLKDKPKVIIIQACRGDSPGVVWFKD
T1 sequence (P29466 317-404 limits assumed): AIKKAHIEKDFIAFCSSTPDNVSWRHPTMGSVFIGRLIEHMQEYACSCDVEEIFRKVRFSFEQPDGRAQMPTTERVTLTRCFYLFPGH
The data set can be described thus: Caspase-1 enzyme inhibition (Ki). The format is biochemical. The essentials: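 Ki obtained by fitting rate versus inhibitor concentration to the Morrison tight-binding equation for competitive inhibitors, with pNA release read at 405 nm at 37 °C. Substrate Suc-YVAD-pNA (80 μM final) added after 15 min enzyme–inhibitor preincubation in Tris pH 7.5 buffer with DTT and CHAPS.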

Another data set addresses T2, Caspase-3 (Homo sapiens, UniProt P42574).
T2 sequence (P42574 29-175 limits assumed): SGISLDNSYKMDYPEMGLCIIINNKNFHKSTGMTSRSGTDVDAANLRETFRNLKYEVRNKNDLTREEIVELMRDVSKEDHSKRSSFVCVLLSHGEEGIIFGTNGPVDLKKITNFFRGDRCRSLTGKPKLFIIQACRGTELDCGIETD
T2 sequence (P42574 176-277 limits assumed): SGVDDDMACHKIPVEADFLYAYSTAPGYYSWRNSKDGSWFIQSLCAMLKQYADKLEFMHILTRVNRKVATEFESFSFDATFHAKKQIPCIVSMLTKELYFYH
The data set can be described thus: Caspase-3 enzyme inhibition (Ki). The format is biochemical. The conditions noted are these: substrate Ac-DEVD-pNA 60 μM, 8% glycerol in buffer, 37° C. How it is done: (§1) Ki values for test compounds with the various caspases were obtained by the method of Margolin et al. (J. Biol. Chem., 272 pp. 7223-7228 (1997)). Assays were performed in 10 mM Tris (Sigma Corp, St Louis Mo.) pH 7.5, 1 mM Dithiothreitol (DTT, Research Organic INC, Cleveland, Ohio) and 0.1% CHAPS (Pierce, Rockford Ill.) at 37° C. For caspase-3, a solution of 8% glycerol was added to the assay buffer to improve enzyme stability. A 65 μL aliquot of the assay buffer and 5 μL aliquot of the appropriate dilutions of inhibitor in DMSO where pipetted into a 96 well plate, treated with 10 μL of caspase, then diluted in assay buffer (0.5-40 nM active protein by active site titration). A control containing DMSO but no compound was included for each determination. The plates were then incubated for 15 minutes at 37° C., before addition of the appropriate substrate (20 μL, final concentration 1-4×KM, final assay volume 100 μL) to initiate the reaction. Reaction rates were measured at 37° C. either by following the time dependant increase in absorbance at 405 nm (for the pNA substrates) or in fluorescence (Ex 390, Em 460) (for the AMC substrates). The rates obtained were plotted against inhibitor concentration and the data fit to the Morrison tight-binding equation for competitive inhibitors (Morrison, J. F., Biochem. Biophys. Acta, 185 pp. 269-286 (1969)). The substrates used for the individual assays were as follows:
Caspase-3 Ac-DEVD-pNA (Bachem, King of Prussia, Pa.) (final concentration in assay, 60 μM)

Another data set addresses Caspase-8 (Homo sapiens, UniProt Q14790). The data set can be described thus: Caspase-8 enzyme inhibition (Ki). Type of data set: biochemical. The conditions noted are these: substrate Ac-DEVD-pNA 80 μM, 37° C. How it is done:
as §1
Caspase-8 Ac-DEVD-pNA (Bachem, King of Prussia, Pa.) (final concentration in assay 80 μM).

Data set [1] can be described thus: In vivo rat clearance assay (i.v.). The conditions noted are these: plasma, iv, i.v. via jugular vein. How it is done:
Cannulations of the jugular and carotid vessels of rats under anesthesia are performed one day prior to the pharmacokinetic study. M. J. Free, R. A. Jaffee; ‘Cannulation techniques for the collection blood and other bodily fluids’; in: Animal Models; p. 480-495; N. J. Alexander, Ed.; Academic Press; (1978). Drug (10 mg/mL) is administered via the jugular vein in a vehicle usually consisting of: propylene glycol/saline, containing 100 mM sodium bicarbonate in a 1:1 ratio. Animals are dosed with 10-20 mg drug/kg and blood samples are drawn at 0, 2, 5, 7, 10, 15, 20, 30, 60, and 90 minutes from an indwelling carotid catheter. The blood is centrifuged to plasma and stored at −20° C. until analysis. Pharmacokinetic analysis of data is performed by non-linear regression using standard software such as RStrip (MicroMath Software, UT) and/or Pcnonlin (SCI Software, NC) to obtain clearance values.
Rat plasma is extracted with an equal volume of acetonitrile (containing 0.1% TFA). Samples are then centrifuged at approximately 1,000×g and the supernatant analyzed by gradient HPLC. A typical assay procedure is described below.
200 μL of plasma is precipitated with 200 μL of 0.1% trifluoroacetic acid (TFA) in acetonitrile and 10 μL of a 50% aqueous zinc chloride solution, vortexed then centrifuged at ^˜1000×g and the supernatant collected and analyzed by HPLC.
A standard curve is run at 20, 10, 5, 2 and 1 μg/mL concentrations.

Where [2] appears, read: substrate Suc-YVAD-pNA 80 μM, 37° C., pH 7.5.

Like-named read-outs stand apart in the source and are kept apart here. Where a SMILES comes first, the peptide text is derived from it. The star is where a group is joined. Bz = O=C(c1ccccc1)*

Sequence of Caspase-8 (Q14790 217-374 limits assumed): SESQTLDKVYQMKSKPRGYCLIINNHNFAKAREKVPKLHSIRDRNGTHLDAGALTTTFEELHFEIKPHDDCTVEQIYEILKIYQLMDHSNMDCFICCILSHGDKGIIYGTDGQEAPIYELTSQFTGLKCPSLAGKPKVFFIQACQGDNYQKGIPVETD
Sequence of Caspase-8 (Q14790 385-479 limits assumed): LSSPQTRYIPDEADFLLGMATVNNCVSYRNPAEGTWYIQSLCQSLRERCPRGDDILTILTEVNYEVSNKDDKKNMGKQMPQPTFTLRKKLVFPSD

Turning to `CC(C)[C@H](NC(=O)c1nccc2ccccc12)C(=O)N1CCC[C@H]1C(=O)N[C@H](C=O)CC(=O)O` [Example 5c], the inhibitory constant (Ki) (as a rule, the equilibrium dissociation constant of an inhibitor or competing ligand from its target) at Caspase-1 (setting [2]) is less than 10 nM.
For `CC(C)[C@H](NC(=O)c1cccc2c1-c1ccccc1C2=O)C(=O)N1CCC[C@H]1C(=O)N[C@H](C=O)CC(=O)O` [Example 5k], the Ki on Caspase-1 and at Caspase-1 (setting [2]) was less than 10 nM each time.
For the compound `CC(C)[C@H](NC(=O)c1cc(Cl)c(O)c(Cl)c1)C(=O)N1CCC[C@H]1C(=O)N[C@H](C=O)CC(=O)O` [Example 5m], the Ki on Caspase-1 and at Caspase-1 (setting [2]) was less than 10 nM throughout.
In the case of `Cc1cc(C(=O)N[C@@H](C)C(=O)N2CCC[C@H]2C(=O)N[C@H](C=O)CC(=O)O)cc(C)c1O` [Example 7c], the figures for the inhibitory constant (Ki) on Caspase-1 (setting [2]), at Caspase-3 and at Caspase-8 were less than 10 nM, more than 1000 nM and more than 1000 nM, respectively.
On to `C[C@H](NC(=O)c1nccc2ccccc12)C(=O)N1CCC[C@H]1C(=O)N[C@H](C=O)CC(=O)O` [Example 7d], for which the inhibition constant (Ki) at Caspase-1 (setting [2]) was less than 10 nM; at Caspase-3, more than 1000 nM; at Caspase-8 it was 10 to 1000 nM. Also, the clearance – broadly, the rate of elimination divided by the concentration – in data set [1] is less than 50 mL/min/kg.
The matching figures for `COc1ccc(C(=O)N[C@@H](C)C(=O)N2CCC[C@H]2C(=O)N[C@H](C=O)CC(=O)O)cc1` [Example 7f]: 10 to 1000 nM, more than 1000 nM, more than 1000 nM and 50 to 80 mL/min/kg.
Take `COCC(=O)N1CCN(C(=O)[C@H](C)NC(=O)c2ccc(N)c(Cl)c2)[C@H](C(=O)N[C@H](C=O)CC(=O)O)C1` [Example 18f]: at Caspase-1 (setting [2]), the inhibition constant Ki is 10 to 1000 nM.
The same measure, in the same setting: the figure for `O=C[C@H](CC(=O)O)NC(=O)[C@@H]1CCCN1C(=O)[C@H](Cc1cccnc1)NC(=O)c1nccc2ccccc12` [Example 20f] is less than 10 nM; for `CSC[C@H](NC(=O)c1nccc2ccccc12)C(=O)N1CCC[C@H]1C(=O)N[C@H](C=O)CC(=O)O` [Example 20g] it is less than 10 nM.
Consider `CS(=O)(=O)CC[C@H](NC(=O)c1nccc2ccccc12)C(=O)N1CCC[C@H]1C(=O)N[C@H](C=O)CC(=O)O` [Example 20h], for which, at Caspase-1 (setting [2]), the Ki is less than 10 nM. Moreover, in data set [1], the clearance was in the range of 50 to 80 mL/min/kg.
The matching figures for `CC[C@H](NC(=O)c1cc(Cl)c(O)c(Cl)c1)C(=O)N1CCC[C@H]1C(=O)N[C@H](C=O)CC(=O)O` [Example 20m]: less than 10 nM and less than 50 mL/min/kg.
`CC(C)[C@H](NC(=O)c1ccccc1)C(=O)N1CC(c2ccccc2)[C@H]1C(=O)N[C@H](C=O)CC(=O)O` (stereo partly drawn) [Example 24a]: the inhibition constant Ki at Caspase-1 (setting [2]) was less than 10 nM; on Caspase-3, more than 1000 nM.
`CC(C)[C@H](NC(=O)c1nccc2ccccc12)C(=O)N1CC(c2ccccc2)[C@H]1C(=O)N[C@H](C=O)CC(=O)O` (stereo partly drawn) [Example 24c] gave an inhibition constant Ki at Caspase-1 (setting [2]) of less than 10 nM.
Still for that read-out and setting: to `CC(C)[C@H](NC(=O)c1nccc2ccccc12)C(=O)N1CC[C@H](C)[C@H]1C(=O)N[C@H](C=O)CC(=O)O` [Example 26c] belongs less than 10 nM; to `CC(C)[C@H](NC(=O)c1nccc2ccccc12)C(=O)N1C2CCCCC2C[C@H]1C(=O)N[C@H](C=O)CC(=O)O` (stereo partly drawn) [Example 26e], less than 10 nM; to `CC(C)[C@H](NC(=O)c1nccc2ccccc12)C(=O)N1[C@@H](c2ccccc2)CC[C@H]1C(=O)N[C@H](C=O)CC(=O)O` [Example 26f], less than 10 nM.
For `C[C@H](NC(=O)c1ccc(N)c(Cl)c1)C(=O)N1CC(F)(F)C[C@H]1C(=O)N[C@H](C=O)CC(=O)O` [Example 27a], at Caspase-1 (setting [2]), the Ki lay within 10 to 1000 nM.
`CC(C)[C@H](NC(=O)c1ccccc1)C(=O)N[C@@H](C)C(=O)N[C@H](C=O)CC(=O)O` [Example 29a] (Bz-Val-Ala-Asp-aldehyde): the inhibition constant (Ki) was less than 10 nM at Caspase-1 (setting [2]) and more than 1000 nM at Caspase-3.
With `C[C@H](NC(=O)[C@@H](NC(=O)c1nccc2ccccc12)C(C)(C)C)C(=O)N[C@H](C=O)CC(=O)O` [Example 29g], on Caspase-1 (setting [2]), the inhibition constant (Ki) was less than 10 nM.
On to `COc1ccc(C(=O)NC(C(=O)N2N=C(C(C)(C)C)SC2C(=O)NC(C=O)CC(=O)O)C(C)C)cc1` (stereo not drawn) [Example 46b], for which the Ki is less than 10 nM at Caspase-1 (setting [2]) and 10 to 1000 nM on Caspase-3.
The compound `COc1ccc(C(=O)NC(C(=O)N2CCCC2C(=O)NC(C=O)CC(=O)O)C(C)C)cc1` (stereo not drawn) [Example 57, 3-({1-[2-(4-Methoxy-benzoylamino)-3-methyl-butyryl]-pyrrolidine-2-carbonyl}-amino)-4-oxo-butyric acid] gave a Ki at Caspase-1 (setting [2]) of less than 10 nM.
As for `Cc1cc(C(=O)N[C@H](C(=O)N2CCCC2C(=O)N[C@H](C=O)CC(=O)O)C(C)C)cc(C)c1O` (stereo partly drawn) [Example 65, 3-({l-[2-(4-Hydroxy-3,5-dimethyl-benzoyiamino)-3-methyl-butyryl]-pyrrolidine-2-carbonyl}-amino)-4-oxo-butyric acid], the inhibitory constant (Ki) on Caspase-1 (setting [2]) is less than 10 nM. The compound also yielded a clearance in data set [1] of more than 80 mL/min/kg.
For `COc1ccc(C(=O)NC(C(=O)N2CCCC2C(=O)NC(C=O)CC(=O)O)C(C)(C)C)cc1` (stereo not drawn) [Example 69, 3-({1-[2-(4-Methoxy-benzoylamino)-3,3-dimethyl-butyryl]-pyrrolidine-2-carbonyl}-amino)-4-oxo-butyric acid], the inhibition constant (Ki) on Caspase-1 (setting [2]) was less than 10 nM; at Caspase-3 it was more than 1000 nM; at Caspase-8, 10 to 1000 nM.
At Caspase-1 (setting [2]), `C[C@H](NC(=O)c1cccc2c1-c1ccccc1C2=O)C(=O)N1CCC[C@H]1C(=O)N[C@H](C=O)CC(=O)O` [Example 122a] came in with a Ki of less than 10 nM.
As for `COc1c(Cl)cc(C(=O)N[C@@H](C)C(=O)N2CCC[C@H]2C(=O)N[C@H](C=O)CC(=O)O)cc1Cl` [Example 122c, 3-({1-[2-(3,5-Dichloro-4-methoxy-benzoylamino)-propionyl]-pyrrolidine-2-carbonyl}-amino)-4-oxo-butyric acid], at Caspase-1 (setting [2]), the Ki was less than 10 nM. In addition, the clearance in data set [1] is more than 80 mL/min/kg.
Regarding `CC(=O)Nc1ccc(C(=O)N[C@@H](C)C(=O)N2CCC[C@H]2C(=O)N[C@H](C=O)CC(=O)O)cc1Cl` [Example 122f, 3-({1-[2-(4-Acetylamino-3-chloro-benzoylamino)-propionyl]-pyrrolidine-2-carbonyl}-amino)-4-oxo-butyric acid], the inhibitory constant (Ki) on Caspase-1 (setting [2]) was less than 10 nM; on Caspase-3 it was more than 1000 nM; on Caspase-8, 10 to 1000 nM. The clearance in data set [1] was less than 50 mL/min/kg.
In the case of `C[C@H](NC(=O)c1cc(Cl)c(O)c(Cl)c1)C(=O)N1CCC[C@H]1C(=O)N[C@H](C=O)CC(=O)O` [Example 122k, 3-({1-[2-(3,5-Dichloro-4-hydroxy-benzoylamino)-propionyl]-pyrrolidine-2-carbonyl}-amino)-4-oxo-butyric acid], the Ki on Caspase-1 (setting [2]) was less than 10 nM; at Caspase-3 it was more than 1000 nM; on Caspase-8 it was 10 to 1000 nM.
